Source: patent US20220339248A1, “METHODS FOR TREATING NEOINTIMAL HYPERLASIA USING F11R/JAM-A INHIBITORS” (THE RESEARCH FOUNDATION FOR THE STATE UNIVERSITY OF NEW YORK, priority 2019, published 2022)
Entries after “also recorded” stand apart in the source; their conditions may differ. Non-standard residues stand in square brackets, D forms with d.

Key:
[1] = molecular target: T1, F11R (Homo sapiens, UniProt Q9Y624); settings: statement in words; activity described in Babinska et al. and U.S. Pat. Nos. 9,556,235 and 8,557,957; cited from earlier work
T1 sequence (Q9Y624 28-299): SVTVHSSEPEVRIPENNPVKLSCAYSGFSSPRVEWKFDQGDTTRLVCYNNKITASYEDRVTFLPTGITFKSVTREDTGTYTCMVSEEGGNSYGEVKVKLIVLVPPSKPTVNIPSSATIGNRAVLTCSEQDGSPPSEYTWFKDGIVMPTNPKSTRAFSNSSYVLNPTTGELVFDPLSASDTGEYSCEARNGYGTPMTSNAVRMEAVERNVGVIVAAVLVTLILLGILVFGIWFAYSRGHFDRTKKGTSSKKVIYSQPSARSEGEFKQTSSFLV

[2] = test system: uremic C57BL/6 mice; experiment: Carotid artery partial ligation (focal LCA stenosis) model of neointimal hyperplasia in 5/6 nephrectomized uremic mice; format: in vivo, mouse; settings: for mean Intima Index (intima area/intima+media area) from 1 LCA location with biggest focal stenosis: FIG. 7, control 0.47±0.15, U-Mann Whitney p=0.039
Method: Carotid artery ligation was performed on 14 uremic C57BL/6 mice that underwent 5/6 nephrectomy. One week after nephrectomy, partial ligation of the left carotid artery (LCA) was performed on each mouse. Focal LCA stenosis was created by placing 9-0 nylon suture at 1 mm proximal to the carotid bifurcation (mid-focal stenosis) around the artery using a 35-gauge blunt needle (World precision Instruments, Inc., Sarasota, Fla.). Then the needle mandrel was gently removed to restore blood flow.
Mice were fed a regular mouse diet and divided into 2 groups of 7 mice each; the experimental group received Peptide 4D while the Control group received saline injections by intraperitoneal route for 21 days, as this was the time shown in earlier studies to correlate with development of neointimal hyperplasia following partial ligation of the carotid artery.
The mice were then euthanized on day 21 and both LCA and right carotid artery (RCA) were excised for analysis. Specimens were embedded in paraffin. Serial sections (6 μm thick) were collected at 200-μm intervals of the LCA from mid-focal stenosis as well as from the RCA serving as lesion control. Data were analyzed qualitatively and quantitatively using Image J software. The two groups were compared for differences in mean Intima Area and Intima Index, defined as the ratio of intima area divided by intima plus media area.

KSVTREDTGTYTC (Laboratory synthesized sequence) [SEQ ID NO: 2]
inhibition of the biological activities of F11R [1]: inhibitor of the biological activities of F11R

NH2-(dK)-SVT-(dR)-EDTGTYTC-CONH2 (H-[dK]SVT[dR]EDTGTYTC-NH2; SMILES CC(C)[C@H](NC(=O)[C@H](CO)NC(=O)[C@H](N)CCCCN)C(=O)N[C@H](C(=O)N[C@H](CCCNC(=N)N)C(=O)N[C@@H](CCC(=O)O)C(=O)N[C@@H](CC(=O)O)C(=O)N[C@H](C(=O)NCC(=O)N[C@H](C(=O)N[C@@H](Cc1ccc(O)cc1)C(=O)N[C@H](C(=O)N[C@@H](CS)C(N)=O)[C@@H](C)O)[C@@H](C)O)[C@@H](C)O)[C@@H](C)O) [Peptide 4D]
mean Intima Index (intima area/intima+media area) from 10 LCA locations ([2]; FIG. 6, 21 days, n=7, control 0.27±0.13, U-Mann Whitney p=0.0079): significantly less | mean Intima Index (intima area/intima+media area) from 1 LCA location with biggest focal stenosis ([2]; 21 days, n=7): significantly less | mean Intima Index (intima area/intima+media area) from 1 LCA location with biggest focal stenosis ([2]; 21 days, n=7, listed as peptide 4D): 0.31±0.14 | intima area relative to distance from the ligation point (mid focal stenosis morphometry) ([2]; FIGS. 3A-3B, 4, LCA, 21 days, versus saline control, n=7): significantly smaller; also recorded: significantly decreased intima area | effect on neointimal hyperplasia ([2]; carotid ligation model, 21 days, versus saline control): significantly inhibits neointimal hyperplasia | number of mice whose LCA had severe neointimal hyperplasia ([2]; of 7 experimental mice, all control LCA severe, two with complete luminal occlusion): one

SSEPEVRIPENNPV (Laboratory synthesized sequence) [SEQ ID NO: 16]
inhibition of the biological activities of F11R [1]: inhibitor of the biological activities of F11R

SVTVHSSEPEVRIPENNPVKLSC (SVTVHSSEPEVXIPENNPVKLSC; Laboratory synthesized sequence; (12)..(12) Xaa can be any naturally occurring amino acid) [SEQ ID NO: 11, 23-amino acid N-terminal peptide of F11R/JAM-A]
inhibition of the biological activities of F11R [1]: inhibitor of the biological activities of F11R
